Results published in ChEMBL document CHEMBL3603834, “Syntheses and Biological Evaluation of Costunolide, Parthenolide, and Their Fluorinated Analogues” (J Med Chem, 2015).

How the values were obtained:
[1] = Cytotoxicity against human KG1a cells; assay type: functional, cell-based; settings: KG-1a
C6 = assay: Cytotoxicity against rat C6 cells; assay type: functional, cell-based
HL-60 [2] = assay: Cytotoxicity against human HL60 cells; assay type: functional, cell-based
HL-60 [3] = assay: Cytotoxicity against human HL60/A cells; assay type: functional, cell-based
[4] = Chemical stability of the compound in p-toluenesulfonic acid in dichloromethane after 48 hrs; assay type: physicochemical
[5] = Half life in human liver microsomes by HPLC-MS/MS analysis in presence of NADPH; assay type: ADME
[6] = Half life in rat plasma; assay type: ADME, cell-free
[7] = Metabolic stability in rat plasma assessed as compound degradation after 420 mins; assay type: ADME, cell-free; settings: read-out: Drug degradation

Stability [4]	half-life [5] [h]	half-life [6] [h]	metabolised at 7 h [7] [%]	SMILES	IC50 [1] [nM]	IC50 (C6) [nM]	IC50 (HL-60 [2]) [nM]	IC50 (HL-60 [3]) [nM]
Unstable	1.39	0.278	–	C=C1C(=O)O[C@@H]2C3O[C@]3(C)CC/C=C(\C)CC[C@@H]12 (some centres undefined)	2300	2500	2000	2000
Stable	1.43	0.338	–	C=C1C(=O)O[C@H]2[C@H]1CC/C(C(F)(F)F)=C\CC[C@@]1(C)O[C@@H]21	2000	3000	2100	2000
Stable	–	–	–	C=C1CC[C@H]2C(=C)C(=O)O[C@@H]2[C@@H]2O[C@]2(C)CCC1F (some centres undefined)	8600	11300	11900	9200
–	–	–	–	C=C1C(=O)O[C@@H]2/C=C(\C)CC/C=C(\C)CC[C@@H]12 [COSTUNOLIDE]	4100	4100	2100	5900
Stable	–	–	–	C=C1C(=O)O[C@H]2[C@H]1CC/C(C(F)F)=C\CC[C@@]1(C)O[C@@H]21	1800	3400	2000	2100
–	–	> 7	20	C/C1=C\CC[C@@]2(C)O[C@H]2[C@H]2OC(=O)[C@@H](C)[C@@H]2CC1	–	–	–	–
–	–	–	–	C=C1C(=O)O[C@@H]2/C=C(\C)CC/C=C(/C(F)(F)F)CC[C@@H]12	5100	5400	5000	4900
Stable	–	–	–	C=C1C(=O)O[C@H]2[C@H]1CC/C(CF)=C\CC[C@@]1(C)O[C@@H]21	2900	2800	2000	1500
